The values that follow come from patent US7067520B2, “Preventive or therapeutic medicines for diabetes containing fused-heterocyclic compounds or their salts” (Ishihara Sangyo Kaisha, Ltd., priority 2000, dated 2006).

In one data set the test system is KK-Ay/Ta mice. Kind of data set: Test for hypoglycemic effect in KK-Ay/Ta mice. As to conditions: after 3 hours; 50 mg/kg single oral dose; percentage to level before administration; significant vs vehicle control (P≦0.05). The format is in vivo. As for the experimental part: Using KK-Ay/Ta mice (purchased from CLEA Japan, Inc.) as spontaneous diabetic type II, the hypoglycemic effect of each of compounds under test was confirmed by the following method.
Male KK-Ay/Ta mice sufficiently preliminarily bred and acclimatized were classified into groups, each consisting of six mice, and each of the compounds under test was administered. Each of the compounds under test as suspended in 0.5% carboxymethyl cellulose (manufactured by Nacalai Tesque), and each compound was orally administered singly in a dose of 50 mg/kg (10 ml/kg) by means of an oral conductor. At the same time, as a group of vehicle control, 0.5% carboxymethyl cellulose was administered in the same volume (10 ml/kg) as for the group of administration of compound under test.
Collection of blood was carried out by the following method before the administration of each of the compounds under test or the vehicle, and at the time as identified in Table 28 after the administration. The tail vein of each mouse was shallowly cut by the edge of a razor to cause bleeding in an amount of blood of from 10 to 20 μL, and the blood was collected by a micropipet. The collected blood samples were immediately mixed with a heparin solution (20 U/ml) (manufactured by Mochida Yakuhin) in the same amount as the respective collected blood samples, and subjected to centrifugation at 4° C. for 5 minutes (10,000 rpm) by means of a cooling centrifugal machine. The plasma after the centrifugation was obtained as a sample for blood glucose level measurement.
The blood glucose level was measured by means of glucose oxidase method, and measured by using a commercially available assay kit (Glucose CII TEST WAKO, manufactured by Wako Pure Chemical Industries, Ltd.). Measurement was carried out on the day after the collection of blood, and the obtained plasma was stored at −20° C. before the measurement.
The blood glucose level at the time of collection of blood was calculated as the percentage to the blood glucose level before administration of the compound under test, and the hypoglycemic effect of the compound under test was evaluated by comparison with the change of the blood glucose level (percentage) of the group of vehicle control at the time of collection of blood. The evaluation results of the hypoglycemic effect are considered to have a significant difference compared with the vehicle control by means of Wilcoxon's rank sum test (P≦0.05)

Another data set deals with L6 cells. The data set can be described thus: Glucose uptake test by L6 cells. It counts as cell-based. The following applies: Rattus norvegicus, 1 hour, 2-deoxy-[3H]-glucose uptake, control (MEM solvent alone) = 100%, read-out: Ratio activity (%); for activity at 10 µg/mL: treatment concentration 10 μg/ml; for activity at 100 µg/mL: treatment concentration 100 μg/ml. The method, then: Glucose Uptake Test by L6 Cells
Each of compounds under test was applied to L6 cells (rat cells originally derived from skeletal muscles) by the following method to measure the stimulating effect on glucose uptake. Namely, L6 cells were suspended in α-minimum essential medium (hereinafter referred to simply as MEM) containing 10% fetal bovine serum (hereinafter referred to simply as FBS), and inoculated into a 96-well plastic plate in an amount of 5×10^4 cells/well and cultivated in an incubator (5% carbon dioxide gas, 37° C.) until the cells grew all over the well. Then, the culture medium was switched to MEM solution containing 2% BS, followed by cultivation further for from 7 to 10 ays (the culture medium was exchanged every three days) to differentiate the cells into skeletal muscle cells. Then, the culture medium was replaced with MEM solution without FBS, followed by cultivation for three hours, and then the compound under test prepared to a treatment concentration (diluted with MEM solution without FBS) was reacted with the skeletal muscle cells at 37° C. for 1 hour. The cells were washed with Krebs-Henseleit-Ringer buffer solution (hereinafter referred to simply as KHR buffer solution), and 2-deoxy-[^3H]-glucose was added to the cells in the KHR buffer solution, followed by treatment at 37° C. for 10 minutes. The treatment solution was removed, the cells were washed with the KHR buffer solution, then the cells were dissolved in a 1N sodium hydroxide solution in an appropriate amount, and the [^3H] radio activity was measured by means of a liquid scintillation counter (cpm) The percentage of the glucose uptake was represented by the percentage of radio activity when the compound under test was applied, taking the radio activity of the control (the MEM solvent alone was applied) as 100%. Each of the compounds as identified in Table 27 was used for treatment at a concentration of each of 10 μg/ml and 100 μg/ml to examine the stimulating effect on glucose uptake.

For orientation: melting point means the temperature, or range, at which the solid turns liquid.

`CSc1nc2ccnn2c(NCc2ccc(C)cc2)c1C#N` [compound 50] yielded a melting point of 159 °C. Further, the “Rate of change of blood glucose level” value in the data set with KK-Ay/Ta mice is 74%. Besides, in the data set on L6 cells, the activity at 10 µg/mL is greater than 115% and the activity at 100 µg/mL was greater than 115%.
For `CCOC(=O)c1c(SC)nc2ccnn2c1NCc1ccncc1` [compound 221], the melting point turned out to be 123 °C. In the data set with L6 cells, the activity at 10 µg/mL is greater than 115% and the activity at 100 µg/mL was greater than 115%.
In the case of `CSc1nc2nc3ccccc3n2c(NCc2ccccc2)c1C#N` [compound 47], the melting point was found to be 233 °C. Further, in the data set on L6 cells, the activity at 100 µg/mL is greater than 115%.
`CSc1nc2ccnn2c(NCCC2OCCO2)c1C#N` [compound 210] gave a melting point of 96 to 97 °C. In the data set with L6 cells, the activity at 10 µg/mL was greater than 115% and the activity at 100 µg/mL was greater than 115%.
Regarding `CSc1nc2ccnn2c(Nc2ccc(C)cc2)c1C#N` [compound 164], the melting point fell in the range of 201 to 202 °C. Further, in the data set with L6 cells, the activity at 10 µg/mL is greater than 115%.
`CSc1nc2ccnn2c(NCc2ccccc2)c1C#N` [Compound No. 2, 7-benzylamino-5-methylthiopyrazolo[1,5-a]pyrimidine-6-carbonitrile] yielded a melting point of 165 °C. Also, in the data set with L6 cells, the activity at 10 µg/mL was greater than 115% and the activity at 100 µg/mL is greater than 115%.
`CSc1nc2ccnn2c(NCCC#N)c1C#N` [compound 82] returned a melting point of 188 °C. In the data set with L6 cells, the activity at 10 µg/mL is greater than 115%.
The compound `CCSc1nc2ccnn2c(NCc2ccncc2)c1C#N` [compound 68] gave a melting point of 196 to 196.4 °C. Besides, in the data set with L6 cells, the activity at 10 µg/mL is greater than 115% and the activity at 100 µg/mL is greater than 115%.
For the compound `CSc1nc2ccnn2c(Nc2ccccc2)c1C#N` [compound 80], the melting point is 195 to 196 °C. In addition, the activity at 10 µg/mL in the data set with L6 cells is greater than 115%.
The matching figures for `CCOC(=O)c1c(SC)nc2ccnn2c1Nc1ccc(C#N)cc1` [compound 224]: 178 °C and greater than 115%.
On to `CNc1c(C#N)c(SC)nc2ccnn12` [compound 14], for which the melting point was found to be 216 °C. For the same compound, the activity at 100 µg/mL in the data set on L6 cells is greater than 115%.
The matching figures for `CSc1nc2ccnn2c(N(C)C)c1C#N` [compound 17]: 144 °C and greater than 115%.
The matching figures for `Cc1nc2ccnn2c(NCCc2ccccc2)c1C#N` [compound 27]: 143 °C and greater than 115%.
In turn, `CSc1nc2ccnn2c(NC2CCCC2)c1C#N` [compound 79] displayed a melting point of 118 °C. Besides, the activity at 10 µg/mL in the data set with L6 cells is greater than 115%.
The like results for `C#CCNc1nc(SC)nc2ccnn12` [compound 64] were, in that order, 175 °C and greater than 115%.
For the compound `CSc1nc2ccnn2c(NOCc2ccccc2)c1C#N` [compound 172], the melting point lay in the range of 177 to 178 °C. For the same compound, in the data set on L6 cells, the activity at 10 µg/mL is greater than 115% and the activity at 100 µg/mL was greater than 115%.
The compound `CCOCNc1c(C#N)c(SC)nc2ccnn12` [compound 9] registered a melting point of 132 to 133 °C. Besides, in the data set with L6 cells, the activity at 10 µg/mL is greater than 115% and the activity at 100 µg/mL was greater than 115%.
`C#CCNc1c(C#N)c(C)nc2ccnn12` [compound 22] yielded a melting point of 169 °C. Besides, in the data set on L6 cells, the activity at 10 µg/mL is greater than 115% and the activity at 100 µg/mL is greater than 115%.
In turn, `C=CCONc1c(C#N)c(SC)nc2ccnn12` [compound 174] returned a melting point of 129 to 130 °C. Besides, in the data set with L6 cells, the activity at 100 µg/mL is greater than 115%.
Consider `CSc1nc2ccnn2c(Nc2ccccc2Cl)c1C#N` [compound 163], for which the melting point fell in the range of 201 to 202 °C. In addition, the activity at 10 µg/mL with L6 cells was greater than 115%.
Regarding `CSc1nc2ccnn2c(Nc2cc(C)ns2)c1C#N` [compound 177], the melting point is 175 to 176 °C. In addition, the activity at 100 µg/mL with L6 cells is greater than 115%.
Regarding `CSc1nc2ccnn2c(Nc2ccccc2C)c1C#N` [compound 203], the melting point was in the range of 192 to 194 °C. Besides, in the data set with L6 cells, the activity at 10 µg/mL is greater than 115%.
On to `N#Cc1c(SCc2ccccc2)nc2ccnn2c1NCc1ccncc1` [compound 71], for which the melting point is 187.8 to 189.2 °C (dec.). Further, in the data set with L6 cells, the activity at 10 µg/mL is greater than 115% and the activity at 100 µg/mL was greater than 115%.
Take `CCNc1c(C#N)c(SC)nc2ccnn12` [compound 15]: the melting point amounted to 133 °C. In the data set with L6 cells, the activity at 100 µg/mL is greater than 115%.
The like results for `Cc1nc2ccnn2c(NCc2ccncc2)c1C#N` [compound 29] were, in that order, 165 °C and greater than 115%.
With `CSc1nc2ccnn2c(Nc2ccc(C#N)cc2)c1C#N` [compound 168], the melting point lay within 280 to 281 °C. Further, in the data set with L6 cells, the activity at 10 µg/mL was greater than 115% and the activity at 100 µg/mL was greater than 115%.
`CSc1nc2ccnn2c(NO)c1C#N` [compound 205] came in with a melting point of 214 to 218 °C. In addition, in the data set with L6 cells, the activity at 10 µg/mL is greater than 115%.
Take `COCSc1nc2ccnn2c(NCc2ccncc2)c1C#N` [compound 108]: the melting point was 164 to 165.5 °C (dec.). Also, the activity at 100 µg/mL in the data set on L6 cells was greater than 115%.
The like results for `CSc1nc2ccnn2c(NCc2ccccn2)c1C#N` [Compound No. 5] were, in that order, 190 °C and greater than 115%.
The matching figures for `COC(=O)c1c(SC)nc2ccnn2c1NCc1ccccc1` [compound 121]: 158.5 to 160.5 °C and greater than 115%.
Consider `C#CCNc1c(S(=O)(=O)c2ccccc2)c(SC)nc2ccnn12` [compound 60], for which the melting point is 162 to 163 °C. For the same compound, the activity at 10 µg/mL in the data set on L6 cells was greater than 115%.
The like results for `N#Cc1c(SC2CCCC2)nc2ccnn2c1NCc1ccncc1` [compound 105] were, in that order, 153.4 to 155.4 °C and greater than 115%.
Consider `CSc1nc2cc(-c3ccccc3)nn2c(NCc2ccccc2)c1C#N` [compound 46], for which the melting point was 172 °C. Further, the activity at 100 µg/mL in the data set on L6 cells is greater than 115%.
The matching figures for `CSc1nc2cc(-c3ccccc3)nn2c(NCc2ccncc2)c1C#N` [compound 48]: 232 °C and greater than 115%.
As to `CSc1nc2ccnn2c(NCc2cccnc2)c1C#N` [compound 4], the melting point was found to be 192 °C. In addition, the activity at 100 µg/mL in the data set with L6 cells is greater than 115%.
In the case of `CSc1nc2ccnn2c(NCc2ccncc2)c1[N+](=O)[O-]` [compound 126], the melting point fell in the range of 154 to 155 °C. In the data set on L6 cells, the activity at 10 µg/mL was greater than 115%.
The like results for `CSc1nc2cc(C)nn2c(Nc2cccc(C)c2)c1C#N` [compound 191] were, in that order, 174 to 176 °C and greater than 115%.
The compound `CCOC(=O)c1c(SC)nc2ccnn2c1Nc1cccc(C#N)c1` [compound 223] came in with a melting point of 156 to 157 °C. In addition, in the data set on L6 cells, the activity at 10 µg/mL is greater than 115% and the activity at 100 µg/mL is greater than 115%.
Compound `CSc1nc2ccnn2c(NCC2CCCCO2)c1C#N` (centres unmarked) [compound 11] displayed a melting point of 121 to 122 °C. In the data set with L6 cells, the activity at 10 µg/mL was greater than 115%.
In the case of `N#Cc1cnc2ccnn2c1NCc1ccccc1` [compound 28], the melting point stood at 125 °C. Also, in the data set with L6 cells, the activity at 100 µg/mL is greater than 115%.
